SMILES strings stand for the structures.

The source of these data is patent US8877742B2, “Compounds” (GlaxoSmithKline Intellectual Property Limited, priority 2011, dated 2014).

This experiment deals with T1, NOX2 in differentiated HL60 cells (Homo sapiens, UniProt P04839).
T1 construct: Differentiation of HL-60 cells to granulocytes increases NOX2 expression; endogenous in cells; host or cells: HL60 cells differentiated into neutrophil-like cells with 1.3% DMSO
T1 sequence (P04839 2-570 limits assumed): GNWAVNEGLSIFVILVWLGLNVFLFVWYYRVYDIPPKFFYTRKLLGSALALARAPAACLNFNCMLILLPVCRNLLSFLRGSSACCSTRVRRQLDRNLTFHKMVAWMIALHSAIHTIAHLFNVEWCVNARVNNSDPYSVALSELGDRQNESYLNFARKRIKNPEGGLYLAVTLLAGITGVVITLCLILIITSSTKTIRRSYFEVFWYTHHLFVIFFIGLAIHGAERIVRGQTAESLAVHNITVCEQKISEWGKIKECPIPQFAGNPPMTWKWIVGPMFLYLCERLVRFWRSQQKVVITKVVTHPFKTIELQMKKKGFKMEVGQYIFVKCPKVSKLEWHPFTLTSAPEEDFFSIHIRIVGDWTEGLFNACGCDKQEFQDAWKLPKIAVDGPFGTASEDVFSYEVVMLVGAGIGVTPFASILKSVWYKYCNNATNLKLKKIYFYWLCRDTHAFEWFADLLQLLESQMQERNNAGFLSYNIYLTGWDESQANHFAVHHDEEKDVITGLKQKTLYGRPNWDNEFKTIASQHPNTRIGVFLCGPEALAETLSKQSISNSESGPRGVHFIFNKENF
T1 sequence (P13498 2-195 partner limits assumed): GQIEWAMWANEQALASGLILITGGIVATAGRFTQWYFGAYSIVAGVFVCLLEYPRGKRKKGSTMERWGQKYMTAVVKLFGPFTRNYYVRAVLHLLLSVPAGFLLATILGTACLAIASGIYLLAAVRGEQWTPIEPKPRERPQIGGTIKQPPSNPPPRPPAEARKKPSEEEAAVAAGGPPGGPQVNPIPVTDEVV
The experiment is described as follows: HL60 cell-based assays: superoxide production by NOX2 (Oxyburst Assay 1 or L012 Assay 2). As to conditions: PMA-stimulated differentiated HL60 cells; in at least one of the HL60 assays (Oxyburst fluorescence or L012 luminescence). As for the experimental part:
In the cell-based assay, superoxide production by NOX2 was measured in differentiated HL60 cells, a human myelomonocytic leukemia cell line, using either Oxyburst (Assay1) or L012 (Assay2). Differentiation of HL-60 cells to granulocytes increases NOX2 expression. The phorbol 12-myristate 13-acetate (PMA) was used to stimulate the production of superoxide in HL60 cells by activating protein kinase C, which then activated the NADPH oxidase (NOX) enzymes. Inhibition of NOX2 enzyme was detected by the reversal of fluorescence signal (Assay 1) or luminescence signal (Assay2). The control inhibitor used was diphenyleneiodonium chloride (DPI), a […] inhibitor capable of non-selectively inhibiting superoxide produced by NOX enzymes.
Assay 1: in this high-throughput screening assay, oxyburst green bovine serum albumin (BSA) was used to detect superoxide production in HL60 cells. Oxidation of Oxyburst green BSA by hydrogen peroxide as a result of the activation of NOX2 by PMA. Oxyburst green BSA fluorescence was measured at excitation 485 nm and emission 530 nm.
Assay 2: in this assay, a chemiluminescence probe, L-012 was used to detect superoxide production in HL60 cells. L-012 reacted with various types of reactive oxygen species generated by PMA-activated HL60 cells. Luminescence was measured using Tecan Infinite 500.
The HL60 cells were differentiated into neutrophil-like cells by adding 1.3% DMSO in the media for 3-7 days (Hua, J et al. (2000) Journal of Leukocyte Biology. 68:216-224). Iscove's Modified Dulbecco's Media (IMDM) with L-Glutamine and 25 mM HEPES buffer, Fetal Bovine Serum (FBS), Penicillin/Streptomycin, Oxyburst Green BSA, PBS, and HBSS buffer with Calcium Chloride and Magnesium Chloride were purchased from Invitrogen (Catalog #s: 12440-061, 10500-064, 15140-163, O-13291, 14190-250, and 14025-134 respectively). Phorbol 12-myristate 13-acetate (PMA), glucose, and CHAPS were purchased from Sigma (Catalog #s: 79346, D-9434, and C5070 respectively). Diphenyleneiodonium chloride (DPI) was purchased from Toronto Research Chemicals (Catalog #: D491500). L-012 was purchased from Wako Chemical (Catalog #: 120-04891). Dimethyl sulfoxide (DMSO) was purchased EMD Chemicals (VWR Catalog #: MX1456-1). Multidrop combi was purchased from Thermo Electron Corporation (Waltham, Mass., USA). Hummingbird nanoliter liquid dispenser was purchased from Genomics Solution (Ann Arbor, Mich., USA). 384 well low-volume plates and polypropylene 384 well clear plates were purchased from Greiner (Catalog #: 784076 and 781280 respectively). 96 well plate and 384 well plate black assay plates were purchased from Greiner (Catalog #: 655094 and 781098). 96 well plate for compound serial dilution was purchased from Corning (Catalog #: 9017). Acquest or Analyst fluorescence plate reader was purchased from LJL Biosystems/Molecular Devices (California, USA). Tecan Infinite 500 was purchased from Tecan (Switzerland).
HL60 cells were thawed and resuspended in Cells media. The cells were centrifuged at 1200 rpm for 5 minutes. Media was aspirated and the cells were resuspended in Cells buffer. The cells were counted and resuspended to 0.5×10^6 cells/mL.
Full inhibition controls were dispensed using 100 nL/well of 1 mM DPI in DMSO to column 18 of a 384 well plate. Compounds were dispensed using 100 nL/well. Full activity controls were dispensed using 100 nL/well of 4 uM PMA in DMSO. Oxyburst Green BSA was added to cell solution at 10 ug/mL. Using the Multidrop, 10 uL cell solution was added to the entire assay plate. The assay plate was incubated at room temperature for 100 minutes. Fluorescence reading was taken after 100 minutes at excitation 485 and emission 530 using 505 Dichroic on the Acquest or Analyst.
Serial dilution (1:3.16 fold serial dilution) of the compounds was performed in 100% DMSO in 96 well plate—Row B-H Column 1-10. Row A, Column 1-10 contained DPI serial dilution. Starting concentration was 10^−2 M (10 mM). […]

For `COc1cc(-c2cn(C)c3nccc(NS(=O)(=O)c4ccccc4)c23)cc(N2CCN(C(C)C)CC2)c1` [Example 29, N-(3-(3-(4-isopropylpiperazin-1-yl)-5-methoxyphenyl)-1-methyl-1H-pyrrolo[2,3-b]pyridin-4-yl)benzenesulfonamide], the half-inhibitory concentration (IC50) is > 100 µM.
To `COc1cc(-c2cn(C)c3nccc(NS(=O)(=O)c4ccccc4)c23)cc(N2CCN(C)CC2)c1` [Example 28, N-(3-(3-methoxy-5-(4-methylpiperazin-1-yl)phenyl)-1-methyl-1H-pyrrolo[2,3-b]pyridin-4-yl)benzenesulfonamide] belongs > 100 µM; to `CC(C)N1CCN(c2cncc(-c3cn(C)c4nccc(NS(=O)(=O)c5cccc(Cl)c5)c34)c2)CC1` [Example 25, 3-chloro-N-(3-(5-(4-isopropylpiperazin-1-yl)pyridin-3-yl)-1-methyl-1H-pyrrolo[2,3-b]pyridin-4-yl)benzenesulfonamide], > 100 µM; to `CN1C(=O)COc2ccc(-c3cn(C)c4nccc(NS(=O)(=O)c5ccccc5)c34)cc21` [Example 39, N-(1-methyl-3-(4-methyl-3-oxo-3,4-dihydro-2H-benzo[b][1,4]oxazin-6-yl)-1H-pyrrolo[2,3-b]pyridin-4-yl)benzenesulfonamide], > 100 µM.
To `Cn1c(-c2cc[nH]n2)c(-c2cccc(N3CCCC3)c2)c2c(NS(=O)(=O)c3ccccc3)ccnc21` [Example 173, N-(1-methyl-2-(1H-pyrazol-3-yl)-3-(3-(pyrrolidin-1-yl)phenyl)-1H-pyrrolo[2,3-b]pyridin-4-yl)benzenesulfonamide] belongs > 100 µM; to `CN1Cc2ccc(-c3cn(C)c4nccc(NS(=O)(=O)c5ccccc5)c34)cc2C1` [Example 251, N-[1-methyl-3-(2-methyl-2,3-dihydro-1H-isoindol-5-yl)-1H-pyrrolo[2,3-b]pyridin-4-yl]benzenesulfonamide], > 100 µM.

A word on the IC50: it is the point on the concentration scale where inhibition reaches its midpoint. Lower therefore signals inhibition by little substance.
